# Patent US7598275B2, “Nicotine in therapeutic angiogenesis and vasculogenesis” (priority 1999, dated 2009)
# B1: Del1: Del-1 protein, known to induce angiogenesis (protein, UniProt O43854 24-480, looked up)
# EGF-like repeat and discoidin …: DICDPNPCENGGICLPGLADGSFSCECPDGFTDPNCSSVVEVASDEEEPTSAGPCTPNPCHNGGTCEISEAYRGDTFIGYVCKCPRGFNGIHCQHNINECEVEPCKNGGICTDLVANYSCECPGEFMGRNCQYKCSGPLGIEGGIISNQQITASSTHRALFGLQKWYPYYARLNKKGLINAWTAAENDRWPWIQINLQRKMRVTGVITQGAKRIGSPEYIKSYKIAYSNDGKTWAMYKVKGTNEDMVFRGNIDNNTPYANSFTPPIKAQYVRLYPQVCRRHCTLRMELLGCELSGCSEPLGMKSGHIQDYQITASSIFRTLNMDMFTWEPRKARLDKQGKVNAWTSGHNDQSQWLQVDLLVPTKVTGIITQGAKDFGHVQFVGSYKLAYSNDGEHWTVYQDEKQRKDKVFQGNFDNDTHRKNVIDPPIYARHIRILPWSWYGRITLRSELLGCTEEE
# How the values were obtained:
# [1] = system: C57BL/6J mice; assay: Disc angiogenesis system (DAS), fibrovascular growth into implanted disc; type: in vivo; settings: for effect on nicotine-induced fibrovascular growth (systemic nicotine) / effect on nicotine-induced fibrovascular growth (local nicotine): oral supplementation: LNNA 6 mg/ml, indomethacin 20 mcg/ml; for effect on nicotine-induced fibrovascular growth (systemic nicotine): nicotine in drinking water; for effect on nicotine-induced fibrovascular growth (local nicotine): nicotine inside the DAS; for angiogenesis in comparison to vehicle: locally in disc pellet: bFGF 20 mcg, Del-1 0.2 M, nicotine 10^-6 M
# Text: To study whether nicotine induces angiogenesis in vivo, we employed the disc angiogenesis system (DAS) (Kowalski et al. (1992) Exp Mol Pathol 56(1):1-19; Fajardo et al. (1998) Lab Invest 58:718-7244).
# Preparation of the disc. The DAS consisted of a disc (11 mm in diameter and 1 mm thickness) made of a polyvinyl alcohol sponge (Kanebo PVA, RippeyCo., Santa Clara, Calif.). Both sides were covered with nitrocellulose cell-impermeable filters (Millipore filters, […] in pore diameter, Millipore, SF, Calif.) of the same diameter as the sponge disc, fixed to the sponge using Millipore glue#1 (xx70000.00, Millipore). As a result, cells (and thus vessels) could penetrate or exit only through the rim of the disc (Kowalski et al. (1992) Exp Mol Pathol 56(1):1-19; Fajardo et al. (1998) Lab Invest 58:718-7244).
# In order to study the local effect of nicotine on angiogenesis, nicotine was placed in a pellet which was added directly to the disc. Briefly, a 1.5-mm core (pellet) was cut from the disc center. Both the pellets and discs were sterilized prior to assembly in a laminar flow hood. The pellet was loaded with up to 20 mcl of the nicotine solution and subsequently air-dried. We placed in the disc pellets with either vehicle (PBS, Sigma, Chemical Co., St Louis, Mo., n=5) or nicotine (10^-6 M, Aldrich Chemical Company, Milwaukee, Wis., n=5) to study the effects of locally administered nicotine. For comparison, in some cases basic fibroblast growth factor (bFGF; 20 mcg) or Del-1 protein (0.2 M) was added to the pellet, rather than nicotine. Both bFGF and Del-1 are known to induce angiogenesis. The pellet was then coated with ethylene-vinyl acetate co-polymer (Elvax, Dupont, Chemcentral Corp., Chicago, Ill.) which would permit slow release of the nicotine from the pellet into the disc. The pellet was then re-inserted into the disc before sealing the disc with the millipore filters.
# To study the systemic effects of nicotine, in some cases the animals were administered nicotine in their drinking water (see below).
# Implantation of the disc. The mice were anesthetized with 4% chloralhydrate [intraperitoneal administration (i.p.), 0.1 cc/10 g body weight]. The flanks and posterior surface of the thorax were shaved and cleaned with saturated 70% isopropyl alcohol. A 2-cm incision was made in the skin of the flank contra-lateral to the implantation site. Blunt dissection through the subcutaneous tissue produced a channel into which the saline moistened disc was inserted. The skin was closed with 5.0 silk suture (Kowalski et al. (1992) Exp Mol Pathol 56(1):1-19; Fajardo et al. (1998) Lab Invest 58:718-7244).
# Disc removal and preparation. Two weeks after disc implantation, the mice were sacrificed with an overdose of 4% chloral hydrate (i.p.) and cervical dislocation. A careful incision was made next to the skin overlying the implanted disc, and the disc was gently removed from the implantation site. Attached tissue was carefully detached from the disc. After removing the disc, one filter was separated from the disc. Discs were then fixed in 10% formalin and embedded flat in paraffin. Subsequently, […] sections were made in a plane through the center of the disc and parallel to the disc surface.
# Quantitation of results. The disc sections were stained with H&E for light microscopy and histomorphometric measurement of radial growth, and stained with toluidine blue for quantitative determination of total area of fibrovascular growth. Using a video microscope and a computer assisted digital image analysis system (NIH Image 1.59b9), the entire area of fibrovascular growth in the toluidine blue stained disc was calculated and expressed in mm^2. As described in a previous study, total fibrovascular growth area is directly proportional to the total area of the disc occupied by blood vessels (Kowalski et al. (1992) Exp Mol Pathol 56(1):1-19; Fajardo et al. (1998) Lab Invest 58:718-7244).
# [2] = system: endothelial cells; assay: Endothelial cell (EC) migration assay; type: cell-based
# Text: In this experiment, the effects of VEGF, FGF and nicotine in an endothelial cell (EC) migration assay were observed. The EC migration assay involves growing a confluent endothelial monolayer, and then scraping away half of the cells. The number of endothelial cells that migrate over time into the denuded region was observed. Unstimulated cells will migrate into the region. Angiogenic agents will accelerate this migration.
# In this histogram shown in FIG. 8, the number of migrating cells is expressed as a percentage of the number of endothelial cells migrating into the region under unstimulated conditions.
# [3] = system: C57BL/6J mice
# Protocol: Murine Ischemic Hindlimb Model of Peripheral Arterial Disease (PAD). Mice were anesthetized with 4% chloral hydrate [intraperitoneal administration (i.p.), 0.1 cc/10 g body weight). The medial surface of both hindlimbs were shaved and then cleaned with betadine solution. A 1.5-cm longitudinal incision was performed, extending from the knee to the inguinal ligament. Through this incision, the superficial femoral artery was dissected free along its length. After the distal ends of both the external iliac and superficial femoral arteries were ligated with 7.0 (Ethicon), complete excision of the femoral artery was performed. An additional set of mice underwent sham operation. The incisions were then closed with discontinuous stitches of 5.0 silk suture (Ethicon). Ampicillin (1 mg/10 gm body weight) intraperitoneal injection was administered after surgical procedure.
# Tissue Preparation. Three weeks after surgery, mice were euthanized with an overdose of 4% chloral hydrate (i.p) and cervical dislocation, and the adductor and semimembranous muscles were collected for capillary density assessment. Briefly, a longitudinal incision in the medial thigh was made to expose the entire hindlimb muscle. The adductor and semimembranous muscles were removed and immediately frozen in OCT. Subsequently, sections 5 μm were taken from the mid-region of each muscle in a transverse orientation. The sections were air dried and fixed in acetone.
# Capillary Densitometry. Immunohistochemistry was performed using an alkaline phosphatase assay to identify the endothelial cells. An eosin counterstain was used to differentiate myocytes. Capillaries and myocytes were identified and counted using light microscopy (20×). For each section, four different fields were selected and the total number of capillaries and myocytes per field determined. These values were averaged to provide a determination of capillary density for each experimental limb. To ensure that value for capillary density was not overestimated due to muscle atrophy, or underestimated due to interstitial edema, capillary density was expressed as a ratio of capillaries to myocytes present in the same field.
# Daily intramuscular injections of nicotine solution or vehicle were administered (50 μl ) for a period of three weeks.
# [4] = highest dose (3200 ng/kg = 3.2 μg/kg) i.m. daily for three weeks
# [5] = VEGF 1 ng/ml, FGF, nicotine (FIG. 8)
molecule,measurement,setting,value
"NC(=NCCC[C@H](N)C(=O)O)N[N+](=O)[O-] [LNNA, L, nitro-arginine]",effect on nicotine-induced fibrovascular growth (systemic nicotine),[1],blocked
same,effect on nicotine-induced fibrovascular growth (local nicotine),[1],blocked the effects of nicotine
COc1ccc2c(c1)c(CC(=O)O)c(C)n2C(=O)c1ccc(Cl)cc1 [indomethacin],effect on nicotine-induced fibrovascular growth (systemic nicotine),[1],blocked
same,effect on nicotine-induced fibrovascular growth (local nicotine),[1],blocked the effects of nicotine
CN(C)C(=O)Oc1cccc([N+](C)(C)C)c1 [neostigmine],increase of EC migration,"[2]; 10^−6 M alone, relative to unstimulated cells",over 50%
"CN1CCC[C@H]1c1cccnc1 [nicotine, S-3-(1-methyl-2-pyrrolidinyl)pyridine]","angiogenic potency relative to growth factors tested in DAS (Del1, bFGF)",[1]; local effects in the disc angiogenesis system,as or more potent
same,area of fibrovascular growth into the disc,"[1]; local nicotine, 10^-6 M in pellet inside the disc, basal about 10 mm^2",about 20 mm^2
same,angiogenesis in comparison to vehicle,[1],increased angiogenesis to the same degree
same,"angiogenesis, systemic versus local nicotine administration",[1]; systemic nicotine (drinking water) compared with nicotine in disc,greater than local nicotine administration
same,"angiogenesis, systemic administration versus locally administered bFGF and Del-1","[1]; systemic nicotine (drinking water), FIG. 4",much greater degree
same,area of fibrovascular growth into the disc,"[1]; systemic nicotine, 60 mcg/ml in drinking water, disc removed two weeks after implantation, basal somewhat greater than 10 mm^2",35 mm^2
same,capillary density in the ischemic limb,"[3]; 0.03 μg/kg i.m. daily for three weeks, vehicle control 0.35",0.67 capillaries/myocyte
same,angiogenic response in the ischemic limb at the highest dose,[3]; [4],angiogenesis was not increased
same,toxicity at the highest dose (interstitial edema and myocyte necrosis),[3]; [4],some toxicity was observed
same,angiogenic effect in non-ischemic hindlimbs,[3]; untreated non-ischemic limb of animals given i.m. nicotine in the ischemic limb,no angiogenic effect was detected
same,"EC migration, number of migrating cells relative to unstimulated conditions",[2]; [5],same degree
VEGF,"EC migration, number of migrating cells relative to unstimulated conditions",[2]; [5],increases EC migration to the same degree as FGF or Nicotine
same,"EC migration, number of migrating cells relative to unstimulated conditions",[2]; high dose VEGF 10 ng/ml,greatest response
"bFGF: basic fibroblast growth factor, known to induce angiogenesis",angiogenesis in comparison to vehicle,[1],increased angiogenesis to the same degree
B1,angiogenesis in comparison to vehicle,[1],increased angiogenesis to the same degree
